Laboratory results reported in PMC10648927, “Examining the activity of cefepime-taniborbactam against Burkholderia cepacia complex and Burkholderia gladioli isolated from cystic fibrosis patients in the United States” (Antimicrobial Agents and Chemotherapy, 2023).
Converted amounts (≈) assume the structure as drawn.

What was measured:
Set-up in all cases: agar dilution MIC, growth inhibition of clinical Burkholderia isolates
B. cenocepacia AU0756 = test system: T1, B. cenocepacia AU0756; test: microbe, parasite or virus in culture; details: Burkholderia cenocepacia, AU0756
T1 construct: AU0756
Procedure, shortened: (§1)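 MICs by agar dilution against Bcc and B. gladioli clinical isolates, interpreted with CLSI breakpoints where available; K. pneumoniae ATCC 700603 (SHV-18) and ATCC BAA-1705 (KPC) served as quality controls.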

B. cenocepacia AU20545 = test system: T2, B. cenocepacia AU20545; test: microbe, parasite or virus in culture; details: Burkholderia cenocepacia, AU20545
T2 construct: AU20545
Procedure, shortened: as §1

B. cenocepacia AU29265 = test system: T3, B. cenocepacia AU29265; test: microbe, parasite or virus in culture; details: Burkholderia cenocepacia, AU29265
T3 construct: AU29265
Procedure, shortened: as §1

B. cepacia AU0329 = test system: T4, B. cepacia AU0329; test: microbe, parasite or virus in culture; details: Burkholderia cepacia, AU0329
T4 construct: AU0329
Procedure, shortened: as §1

B. cepacia AU13354 = test system: T5, B. cepacia AU13354; test: microbe, parasite or virus in culture; details: Burkholderia cepacia, AU13354
T5 construct: AU13354
Procedure, shortened: as §1

B. cepacia AU15249 = test system: T6, B. cepacia AU15249; test: microbe, parasite or virus in culture; details: Burkholderia cepacia, AU15249
T6 construct: AU15249
Procedure, shortened: as §1

B. contaminans AU17641 = test system: T7, B. contaminans AU17641; test: organism not typed
T7 construct: AU17641
Procedure, shortened: as §1

B. dolosa AU29985 = test system: T8, B. dolosa AU29985; test: microbe, parasite or virus in culture; details: Burkholderia dolosa, AU29985
T8 construct: AU29985
Procedure, shortened: as §1

B. gladioli AU26456 = test system: T9, B. gladioli AU26456; test: organism not typed
T9 construct: AU26456
Procedure, shortened: as §1

B. gladioli AU27927 = test system: T10, B. gladioli AU27927; test: organism not typed
T10 construct: AU27927
Procedure, shortened: as §1

B. multivorans AU10398 = test system: T11, B. multivorans AU10398; test: microbe, parasite or virus in culture; details: Burkholderia multivorans, AU10398
T11 construct: AU10398
Procedure, shortened: as §1

B. multivorans AU15814 = test system: T12, B. multivorans AU15814; test: microbe, parasite or virus in culture; details: Burkholderia multivorans, AU15814
T12 construct: AU15814
Procedure, shortened: as §1

B. multivorans AU15954 = test system: T13, B. multivorans AU15954; test: microbe, parasite or virus in culture; details: Burkholderia multivorans, AU15954
T13 construct: AU15954
Procedure, shortened: as §1

B. multivorans AU17545 = test system: T14, B. multivorans AU17545; test: microbe, parasite or virus in culture; details: Burkholderia multivorans, AU17545
T14 construct: AU17545
Procedure, shortened: as §1

B. multivorans AU21015 = test system: T15, B. multivorans AU21015; test: microbe, parasite or virus in culture; details: Burkholderia multivorans, AU21015
T15 construct: AU21015
Procedure, shortened: as §1

B. multivorans AU21596 = test system: T16, B. multivorans AU21596; test: microbe, parasite or virus in culture; details: Burkholderia multivorans, AU21596
T16 construct: AU21596
Procedure, shortened: as §1

B. multivorans AU25626 = test system: T17, B. multivorans AU25626; test: microbe, parasite or virus in culture; details: Burkholderia multivorans, AU25626
T17 construct: AU25626
Procedure, shortened: as §1

B. multivorans AU4507 = test system: T18, B. multivorans AU4507; test: microbe, parasite or virus in culture; details: Burkholderia multivorans, AU4507
T18 construct: AU4507
Procedure, shortened: as §1

B. pyrrocinia AU4348 = test system: T19, B. pyrrocinia AU4348; test: microbe, parasite or virus in culture; details: Burkholderia pyrrocinia, AU4348
T19 construct: AU4348
Procedure, shortened: as §1

B. seminalis AU14842 = test system: T20, B. seminalis AU14842; test: organism not typed
T20 construct: AU14842
Procedure, shortened: as §1

B. vietnamiensis AU28891 = test system: T21, B. vietnamiensis AU28891; test: microbe, parasite or virus in culture; details: Burkholderia vietnamiensis, AU28891
T21 construct: AU28891
Procedure, shortened: as §1

[1] = test system: T22, Burkholderia cepacia complex Bcc Indeterminate AU14915; test: microbe, parasite or virus in culture; details: Burkholderia cepacia
T22 construct: AU14915
Procedure, shortened: as §1

SMILES	MIC (B. cenocepacia AU0756)	MIC (B. cenocepacia AU20545)	MIC (B. cenocepacia AU29265)	MIC (B. cepacia AU0329)	MIC (B. cepacia AU13354)	MIC (B. cepacia AU15249)	MIC (B. contaminans AU17641)	MIC (B. dolosa AU29985)	MIC (B. gladioli AU26456)	MIC (B. gladioli AU27927)	MIC (B. multivorans AU10398)	MIC (B. multivorans AU15814)	MIC (B. multivorans AU15954)	MIC (B. multivorans AU17545)	MIC (B. multivorans AU21015)	MIC (B. multivorans AU21596)	MIC (B. multivorans AU25626)	MIC (B. multivorans AU4507)	MIC (B. pyrrocinia AU4348)	MIC (B. seminalis AU14842)	other results
CO/N=C(\C(=O)N[C@@H]1C(=O)N2C(C(=O)[O-])=C(C[N+]3(C)CCCC3)CS[C@H]12)c1csc(N)n1 [cefepime]	> 32 µg/mL	8 µg/mL (≈ 16.6 µM)	16 µg/mL (≈ 33.3 µM)	> 32 µg/mL	> 32 µg/mL	32 µg/mL (≈ 66.6 µM)	32 µg/mL (≈ 66.6 µM)	> 32 µg/mL	4 µg/mL (≈ 8.32 µM)	8 µg/mL (≈ 16.6 µM)	> 32 µg/mL	32 µg/mL (≈ 66.6 µM)	8 µg/mL (≈ 16.6 µM)	16 µg/mL (≈ 33.3 µM)	> 32 µg/mL	> 32 µg/mL	8 µg/mL (≈ 16.6 µM)	8 µg/mL (≈ 16.6 µM)	32 µg/mL (≈ 66.6 µM)	16 µg/mL (≈ 33.3 µM)	MIC (B. vietnamiensis AU28891): 8 µg/mL (≈ 16.6 µM); MIC [1]: > 32 µg/mL
C[C@H]1COc2c(N3CCN(C)CC3)c(F)cc3c(=O)c(C(=O)O)cn1c23 [levofloxacin]	> 32 µg/mL	2 µg/mL (≈ 5.53 µM)	2 µg/mL (≈ 5.53 µM)	> 32 µg/mL	8 µg/mL (≈ 22.1 µM)	4 µg/mL (≈ 11.1 µM)	4 µg/mL (≈ 11.1 µM)	> 32 µg/mL	0.5 µg/mL (≈ 1.38 µM)	1 µg/mL (≈ 2.77 µM)	16 µg/mL (≈ 44.3 µM)	16 µg/mL (≈ 44.3 µM)	2 µg/mL (≈ 5.53 µM)	8 µg/mL (≈ 22.1 µM)	32 µg/mL (≈ 88.6 µM)	> 32 µg/mL	4 µg/mL (≈ 11.1 µM)	8 µg/mL (≈ 22.1 µM)	> 32 µg/mL	4 µg/mL (≈ 11.1 µM)	MIC (B. vietnamiensis AU28891): 8 µg/mL (≈ 22.1 µM); MIC [1]: 16 µg/mL (≈ 44.3 µM)
C[C@@H](O)[C@H]1C(=O)N2C(C(=O)O)=C(S[C@@H]3CN[C@H](C(=O)N(C)C)C3)[C@H](C)[C@H]12 [meropenem]	32 µg/mL (≈ 83.4 µM)	2 µg/mL (≈ 5.22 µM)	2 µg/mL (≈ 5.22 µM)	2 µg/mL (≈ 5.22 µM)	8 µg/mL (≈ 20.9 µM)	4 µg/mL (≈ 10.4 µM)	4 µg/mL (≈ 10.4 µM)	> 32 µg/mL	1 µg/mL (≈ 2.61 µM)	1 µg/mL (≈ 2.61 µM)	8 µg/mL (≈ 20.9 µM)	> 32 µg/mL	4 µg/mL (≈ 10.4 µM)	2 µg/mL (≈ 5.22 µM)	16 µg/mL (≈ 41.7 µM)	32 µg/mL (≈ 83.4 µM)	> 32 µg/mL	8 µg/mL (≈ 20.9 µM)	4 µg/mL (≈ 10.4 µM)	4 µg/mL (≈ 10.4 µM)	MIC (B. vietnamiensis AU28891): 2 µg/mL (≈ 5.22 µM); MIC [1]: 16 µg/mL (≈ 41.7 µM)
